Here are results for 16 compounds from patent US11352352B2, “Aminopyrimidine compound, preparation method therefor and use thereof” (BEIJING ADAMADLE BIOTECHNOLOGY LIMITED LIABILITY COMPANY, priority 2017, dated 2022).

pIC50: −log10 of the molar value.

In general, pIC50 refers to −log10 of the IC50, conventionally taken in molar units.

Common to all, as to test: Cell proliferation inhibition experiment, CellTiter-Glo (CTG) method
Holding throughout (format): cell-based
(ATP-based viability assays read luminescence as a measure of living cells.)

The subject of one assay is NCI-H1975. As to conditions: for pIC50: Homo sapiens, NCI-H1975, 72 h, NCI-H1975 cells, CTG, 3 days; for A-431/NCI-H1975 Selectivity: ratio of A-431 IC50 to NCI-H1975 IC50. The procedure, abridged: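 NCI-H1975 cells with viability above 90% by trypan blue were seeded at 90 μL per well in black 96-well plates and incubated overnight at 37° C., 5% CO2. Compounds were added at nine concentrations in triplicate, and viability was measured with CellTiter-Glo luminescence on EnVision. IC50 came from non-linear S-curve fitting in GraphPad Prism 5.0.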

The next assay concerns PC-9. As to conditions: Homo sapiens, PC-9, 72 h, PC-9 cells, 3 days. The procedure, abridged:
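Cells in log-phase growth (viability above 90% by trypan blue) were seeded at 90 μL per well in black-walled, clear-bottom 96-well plates and incubated overnight at 37° C., 5% CO2. A T0 plate was read the next day. Test compounds were added at nine concentrations in triplicate with a solvent control. Viability was measured by CellTiter-Glo luminescence on EnVision, and IC50 came from non-linear S-curve fitting in GraphPad Prism 5.0.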

A further assay concerns A-431. The note with it: Homo sapiens, A-431, 72 h, A-431 cells, 3 days. The gist of the method: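 For each line, compound is added at nine threefold-spaced concentrations, highest 30 μM (A-431) or 1.111 μM (NCI-H1975, PC-9), and cells grow 3 days at 37 °C. CellTiter-Glo luminescence gives survival relative to solvent control, fitted to yield IC50.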

Consider `C=CC(=O)Nc1cc(Nc2cc(-c3ccc4cnn(C)c4c3)ncn2)c(OC)cc1N1CCC(N2CCCC2=O)CC1` [compound 213], for which the figures for the negative-log IC50 (pIC50) in the assay with NCI-H1975, with PC-9 and in the assay with A-431 were 7.13, 7.25 and 5.69, respectively. In addition, the “A-431/NCI-H1975 Selectivity” value in the assay with NCI-H1975 was 27.4.

With `C=CC(=O)Nc1cc(Nc2cc(-c3ccc4c(cnn4C)c3)ncn2)c(OC)cc1N1CCN(C2CCOC2)CC1` (stereo not shown) [compound 214], the pIC50 in the assay with NCI-H1975 was 7.71; with PC-9, 7.78; with A-431 it was 5.82. In addition, in the assay on NCI-H1975, the “A-431/NCI-H1975 Selectivity” value came to 77.6.

For `C=CC(=O)Nc1cc(Nc2cc(-c3ccc4cnn(C)c4c3)ncn2)c(OC)cc1N1CCN(C2CCOC2)CC1` (stereo not shown) [compound 215], the negative-log IC50 (pIC50) with NCI-H1975 was 7.74; with PC-9, 7.81; in the assay with A-431, 5.84. Further, the “A-431/NCI-H1975 Selectivity” value in the assay with NCI-H1975 was determined as 78.1.

As to `C=CC(=O)Nc1cc(Nc2cc(-c3ccc4c(cnn4C)c3)ncn2)c(OC)cc1N1CCN(C2CCC(OC)C2)CC1` (stereo not shown) [compound 216], the negative logarithm of the IC50 (pIC50) with NCI-H1975 is 7.87; in the assay on PC-9, 7.89; in the assay on A-431, 5.91. Moreover, the “A-431/NCI-H1975 Selectivity” value in the assay with NCI-H1975 is listed as 90.0.

As to `C=CC(=O)Nc1cc(Nc2cc(-c3ccc4cnn(C)c4c3)ncn2)c(OC)cc1N1CCN(C2CCC(OC)C2)CC1` (stereo not shown) [compound 217], the negative logarithm of the IC50 (pIC50) with NCI-H1975 is 7.77; in the assay on PC-9 it was 7.87; with A-431, 5.85. The “A-431/NCI-H1975 Selectivity” value with NCI-H1975 was 82.8.

In the case of `C=CC(=O)Nc1cc(Nc2cc(-c3ccc4c(cnn4C)c3)ncn2)c(OC)cc1N1CCN(C2COC2)CC1` [compound 218], the pIC50 is 7.67 in the assay with NCI-H1975, 8.04 in the assay on PC-9 and 5.74 in the assay with A-431. Besides, the “A-431/NCI-H1975 Selectivity” value with NCI-H1975 is reported as 86.6.

As to `C=CC(=O)Nc1cc(Nc2cc(-c3ccc4cnn(C)c4c3)ncn2)c(OC)cc1N1CCN(C2COC2)CC1` [compound 219], the figures for the pIC50 with NCI-H1975, in the assay with PC-9 and with A-431 were 7.31, 7.34 and 5.60, respectively. For the same compound, in the assay on NCI-H1975, the “A-431/NCI-H1975 Selectivity” value worked out at 50.8.

As to `C=CC(=O)Nc1cc(Nc2cc(-c3ccc4c(cnn4C)c3)ncn2)c(OC)cc1N(C)C1CCN(C2CCOCC2)CC1` [compound 220], the values for the pIC50 in the assay with NCI-H1975, with PC-9 and with A-431 were 7.22, 7.26 and 5.61, respectively. In addition, the “A-431/NCI-H1975 Selectivity” value in the assay on NCI-H1975 is recorded as 40.1.

As to `C=CC(=O)Nc1cc(Nc2cc(-c3ccc4cnn(C)c4c3)ncn2)c(OC)cc1N(C)C1CCN(C2CCOCC2)CC1` [compound 221], the pIC50 is 7.15 in the assay on NCI-H1975, 7.02 in the assay with PC-9 and 5.61 in the assay on A-431. Also, the “A-431/NCI-H1975 Selectivity” value in the assay with NCI-H1975 is on record as 34.7.

As to `C=CC(=O)Nc1cc(Nc2cc(-c3ccc4c(cnn4C)c3)ncn2)c(OC)cc1N(C)C1CCN(CCOC)C1` (stereo not shown) [compound 222], the pIC50 in the assay with NCI-H1975 is 7.87; with PC-9, 7.68; in the assay with A-431, 6.01. The “A-431/NCI-H1975 Selectivity” value in the assay with NCI-H1975 is listed as 72.3.

For `C=CC(=O)Nc1cc(Nc2cc(-c3ccc4cnn(C)c4c3)ncn2)c(OC)cc1N(C)C1CCN(CCOC)C1` (stereo not shown) [compound 223], the pIC50 is 7.39 with NCI-H1975, 7.39 in the assay with PC-9 and 5.63 with A-431. For the same compound, the “A-431/NCI-H1975 Selectivity” value in the assay on NCI-H1975 amounted to 57.4.

For the compound `C=CC(=O)Nc1cc(Nc2cc(-c3ccc4c(cnn4C)c3)ncn2)c(OC)cc1N(C)C1CCN(CCOC)CC1` [compound 224], the results for the pIC50 in the assay with NCI-H1975, with PC-9 and in the assay with A-431 were 7.80, 7.57 and 5.96, respectively. The “A-431/NCI-H1975 Selectivity” value with NCI-H1975 is recorded as 69.3.

As to `C=CC(=O)Nc1cc(Nc2cc(-c3ccc4cnn(C)c4c3)ncn2)c(OC)cc1N(C)C1CCN(CCOC)CC1` [compound 225], the results for the negative logarithm of the IC50 (pIC50) with NCI-H1975, in the assay with PC-9 and in the assay with A-431 were 7.12, 7.17 and 5.61, respectively. Besides, the “A-431/NCI-H1975 Selectivity” value in the assay with NCI-H1975 amounted to 32.9.

In the case of `C=CC(=O)Nc1cc(Nc2cc(-c3ccc4c(cnn4C)c3)ncn2)c(OC)cc1N(C)C1CCN(CC)CC1` [compound 226], the pIC50 in the assay with NCI-H1975 was 7.17; with PC-9 it was 7.26; with A-431 it was 5.62. In addition, in the assay with NCI-H1975, the “A-431/NCI-H1975 Selectivity” value is recorded as 35.0.

On to `C=CC(=O)Nc1cc(Nc2cc(-c3ccc4cnn(C)c4c3)ncn2)c(OC)cc1N(C)C1CCN(CC)CC1` [compound 227], for which the pIC50 with NCI-H1975 was 7.10; in the assay on PC-9, 7.04; with A-431 it was 5.61. Further, the “A-431/NCI-H1975 Selectivity” value with NCI-H1975 stood at 30.6.

Take `C=CC(=O)Nc1cc(Nc2nccc(-c3ccc4c(cnn4C)c3)n2)c(OC)cc1N1CCN(C)CC1` [compound 228]: the pIC50 was 7.18 with NCI-H1975, 7.45 in the assay on PC-9 and 5.80 with A-431. The “A-431/NCI-H1975 Selectivity” value with NCI-H1975 was found to be 24.1.
